Source: patent publication US20180318287A1, “Imidazo[4,5-c]quinolin-2-one Compounds and Their Use in Treating Cancer” (ASTRAZENECA AB, priority 2015, published 2018)

Tests used:
[1] = target: T1, ATM kinase (Homo sapiens, UniProt Q13315); experiment: Assay a): ATM cellular potency (pATM Ser1981 in irradiated HT29 cells); type: cell-based; details: HT29 cells, X-ray irradiation, pATM Ser1981; Table 2; read-out: Assay a) ATM Cell IC50
T1 construct: endogenous in cells; host or cells: HT29 cells (ECACC #85061109)
Procedure: Most ATM molecules in the cell are rapidly phosphorylated on this site after doses of radiation as low as 0.5 Gy, and binding of a phosphospecific antibody is detectable after the introduction of only a few DNA double-strand breaks in the cell.
The rationale of the p ATM assay is to identify inhibitors of ATM in cells. HT29 cells are incubated with test compounds for 1 hr prior to X-ray-irradiation. 1 h later the cells are fixed and stained for p ATM (Ser1981). The fluorescence is read on the arrayscan imaging platform.
The following morning compounds of Formula (I) in 100% DMSO were added to assay plates by acoustic dispensing. After 1 h incubation at 37° C. and 5% CO2, plates (up to 6 at a time) were irradiated using the X-RAD 320 instrument (PXi) with equivalent to ˜600cGy. Plates were returned to the incubator for a further 1 h. […] Then 20 μl of 0.1% Triton X100 in PBS was added and incubated for 20 minutes at r.t., to permeabalise cells. Then the plates were washed once with […] PBS, using a Biotek EL405 plate washer.
After 1 h incubation at r.t., the plates were washed three times with 50 μl/well PBS, using a Biotek EL405 plate washer, and plates were sealed and kept in PBS at 4° C. until read. Plates were read using an ArrayScan VTI instrument, using an XF53 filter with 10× objective.

[2] = target: T2, ATR kinase (Homo sapiens, UniProt Q13535); experiment: Assay b): ATR cellular potency (pChk1 Ser345 in HT29 cells after 4NQO); type: cell-based; details: HT29 cells, 4NQO, pChk1 Ser345; Table 2; read-out: Assay b) ATR Cell IC50
T2 construct: endogenous in cells; host or cells: HT29 cells (ECACC #85061109)
Procedure: ATR is a PI 3-kinase-related kinase which phosphorylates multiple substrates on serine or threonine residues in response to DNA damage during or replication blocks. Chk1, a downstream protein kinase of ATR, plays a key role in DNA damage checkpoint control. Activation of Chk1 involves phosphorylation of Ser317 and Ser345 (the latter regarded as the preferential target for phosphorylation/activation by ATR).
The following morning compound of Formula (I) in 100% DMSO were added to assay plates by acoustic dispensing. After 1 h incubation at 37° C. and 5% CO2, 40 nl of 3 mM 4NQO in 100% DMSO was added to all wells by acoustic dispensing, except minimum control wells which were left untreated with 4NQO to generate a null response control. Plates were returned to the incubator for a further 1 h. […] Then 20 μl of 0.1% Triton X100 in PBS was added and incubated for 10 minutes at r.t., to permeabalise cells. Then the plates were washed once with 50 μl/well PBS, using a Biotek EL405 plate washer.
After 2 h incubation at r.t., the plates were washed three times with 50 μl/well PBS, using a Biotek EL405 plate washer, and plates were then sealed with black plate seals until read. Plates were read using an ArrayScan VTI instrument, using an XF53 filter with 10× objective.

T1 sequence (Q13315 whole entry): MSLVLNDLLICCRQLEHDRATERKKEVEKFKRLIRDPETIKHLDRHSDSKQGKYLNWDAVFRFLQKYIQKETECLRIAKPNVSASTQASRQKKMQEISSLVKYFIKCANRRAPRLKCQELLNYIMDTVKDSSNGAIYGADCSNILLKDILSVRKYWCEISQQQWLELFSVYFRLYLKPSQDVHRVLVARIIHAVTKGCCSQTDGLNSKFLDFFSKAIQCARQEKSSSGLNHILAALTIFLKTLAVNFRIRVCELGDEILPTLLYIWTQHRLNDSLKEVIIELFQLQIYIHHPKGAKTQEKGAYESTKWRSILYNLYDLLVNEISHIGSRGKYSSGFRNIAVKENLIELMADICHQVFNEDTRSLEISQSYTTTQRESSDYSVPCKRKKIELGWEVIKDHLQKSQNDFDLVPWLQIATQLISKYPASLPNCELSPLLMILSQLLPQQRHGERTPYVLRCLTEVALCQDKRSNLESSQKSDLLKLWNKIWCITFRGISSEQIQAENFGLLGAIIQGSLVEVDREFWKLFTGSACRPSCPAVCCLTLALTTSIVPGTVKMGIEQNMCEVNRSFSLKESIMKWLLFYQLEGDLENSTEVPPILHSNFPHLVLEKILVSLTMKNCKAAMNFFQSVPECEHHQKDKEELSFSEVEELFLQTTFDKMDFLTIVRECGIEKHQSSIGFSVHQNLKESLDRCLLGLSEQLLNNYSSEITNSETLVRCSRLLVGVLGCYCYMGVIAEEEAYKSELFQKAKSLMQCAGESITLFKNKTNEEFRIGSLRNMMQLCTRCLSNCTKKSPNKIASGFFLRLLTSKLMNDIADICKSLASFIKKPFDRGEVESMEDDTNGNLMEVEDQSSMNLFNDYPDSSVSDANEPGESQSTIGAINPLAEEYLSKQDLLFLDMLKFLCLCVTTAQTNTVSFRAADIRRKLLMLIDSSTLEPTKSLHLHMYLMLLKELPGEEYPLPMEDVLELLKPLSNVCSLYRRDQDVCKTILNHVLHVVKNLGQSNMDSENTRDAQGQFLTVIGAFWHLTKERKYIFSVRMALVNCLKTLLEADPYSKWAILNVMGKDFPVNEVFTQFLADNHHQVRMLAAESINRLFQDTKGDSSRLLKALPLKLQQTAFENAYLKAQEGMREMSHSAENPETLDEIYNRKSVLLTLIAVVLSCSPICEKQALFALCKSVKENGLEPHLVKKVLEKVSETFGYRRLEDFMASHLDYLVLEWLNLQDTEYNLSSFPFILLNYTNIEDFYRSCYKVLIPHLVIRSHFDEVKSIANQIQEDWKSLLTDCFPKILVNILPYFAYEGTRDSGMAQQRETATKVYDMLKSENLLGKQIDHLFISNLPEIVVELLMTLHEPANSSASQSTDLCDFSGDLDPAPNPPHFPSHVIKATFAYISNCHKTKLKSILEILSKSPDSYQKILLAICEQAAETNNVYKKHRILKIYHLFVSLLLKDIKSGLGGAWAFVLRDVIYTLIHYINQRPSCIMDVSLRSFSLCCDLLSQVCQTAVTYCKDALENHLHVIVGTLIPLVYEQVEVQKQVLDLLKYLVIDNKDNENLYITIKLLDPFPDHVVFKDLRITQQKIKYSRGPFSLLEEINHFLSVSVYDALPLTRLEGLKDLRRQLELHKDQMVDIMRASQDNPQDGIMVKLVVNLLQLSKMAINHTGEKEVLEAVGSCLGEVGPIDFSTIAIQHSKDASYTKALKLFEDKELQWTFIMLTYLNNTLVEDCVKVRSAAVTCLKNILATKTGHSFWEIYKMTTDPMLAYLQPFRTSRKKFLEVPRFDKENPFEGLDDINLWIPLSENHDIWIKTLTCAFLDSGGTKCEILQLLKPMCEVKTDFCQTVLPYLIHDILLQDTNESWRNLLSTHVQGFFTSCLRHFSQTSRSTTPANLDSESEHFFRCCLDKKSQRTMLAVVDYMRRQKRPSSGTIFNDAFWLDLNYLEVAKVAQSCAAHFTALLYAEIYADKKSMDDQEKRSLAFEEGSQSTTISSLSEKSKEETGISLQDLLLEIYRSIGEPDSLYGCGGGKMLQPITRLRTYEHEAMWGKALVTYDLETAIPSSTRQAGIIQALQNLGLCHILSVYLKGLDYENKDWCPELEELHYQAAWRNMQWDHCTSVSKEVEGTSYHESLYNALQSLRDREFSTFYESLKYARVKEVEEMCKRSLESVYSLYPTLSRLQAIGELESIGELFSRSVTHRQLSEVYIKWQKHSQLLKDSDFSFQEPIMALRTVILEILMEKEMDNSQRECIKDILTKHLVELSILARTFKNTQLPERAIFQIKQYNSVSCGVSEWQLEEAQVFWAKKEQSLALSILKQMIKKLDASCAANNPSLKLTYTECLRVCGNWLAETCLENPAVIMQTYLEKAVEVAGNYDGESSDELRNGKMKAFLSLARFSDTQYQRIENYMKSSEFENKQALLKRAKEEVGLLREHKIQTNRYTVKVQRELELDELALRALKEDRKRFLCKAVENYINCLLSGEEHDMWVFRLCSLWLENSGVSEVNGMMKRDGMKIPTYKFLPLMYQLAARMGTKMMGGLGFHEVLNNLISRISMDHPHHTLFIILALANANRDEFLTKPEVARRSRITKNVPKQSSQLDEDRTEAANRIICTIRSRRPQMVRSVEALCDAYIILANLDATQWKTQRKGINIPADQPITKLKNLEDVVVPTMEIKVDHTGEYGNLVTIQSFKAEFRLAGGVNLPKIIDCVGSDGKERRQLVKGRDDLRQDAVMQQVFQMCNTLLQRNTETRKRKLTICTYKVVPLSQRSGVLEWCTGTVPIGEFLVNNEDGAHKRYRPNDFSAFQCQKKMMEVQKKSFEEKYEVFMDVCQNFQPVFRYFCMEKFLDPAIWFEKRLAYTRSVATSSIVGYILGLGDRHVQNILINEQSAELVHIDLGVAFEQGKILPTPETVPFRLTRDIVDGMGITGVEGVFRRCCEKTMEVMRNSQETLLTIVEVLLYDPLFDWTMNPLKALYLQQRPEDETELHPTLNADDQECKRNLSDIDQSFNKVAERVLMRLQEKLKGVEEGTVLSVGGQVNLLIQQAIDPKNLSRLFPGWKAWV

SMILES	IC50 [1]	IC50 [2]
CO[C@H]1CC[C@H](n2c(=O)n(C)c3cnc4cc(F)c(-c5ccc(OCCCN(C)C)cc5)cc4c32)C1 (single isomer, unassigned) [Example 13, 8-[4-[3-(dimethylamino)propoxy]phenyl]-7-fluoro-1-[trans-3-methoxycyclopentyl]-3-methyl-imidazo[4,5-c]quinolin-2-one]	1.63 nM	> 30000 nM
CO[C@@H]1CC[C@@H](n2c(=O)n(C)c3cnc4cc(F)c(-c5ccc(OCCCN(C)C)cc5)cc4c32)C1 (single isomer, unassigned) [Example 14, 8-[4-[3-(dimethylamino)propoxy]phenyl]-7-fluoro-1-[trans-3-methoxycyclopentyl]-3-methyl-imidazo[4,5-c]quinolin-2-one]	1.37 nM	> 29400 nM
CO[C@H]1CCC[C@H](n2c(=O)n(C)c3cnc4ccc(-c5ccc(OCCCN(C)C)cc5)cc4c32)C1 (single isomer, unassigned) [Example 28, 8-[4-[3-(dimethylamino)propoxy]phenyl]-1-[trans-3-methoxycyclohexyl]-3-methyl-imidazo[4,5-c]quinolin-2-one]	0.285 nM	11300 nM
CO[C@H]1CCC[C@H](n2c(=O)n(C)c3cnc4ccc(-c5ccc(OCCCN(C)C)cc5)cc4c32)C1 (single isomer, unassigned) [Example 29, 8-[4-[3-(dimethylamino)propoxy]phenyl]-1-[trans-3-methoxycyclohexyl]-3-methyl-imidazo[4,5-c]quinolin-2-one]	1.64 nM	12800 nM
CO[C@H]1CCC[C@H](n2c(=O)n(C)c3cnc4ccc(-c5ccc(OCCCN6CCCC6)cc5)cc4c32)C1 (single isomer, unassigned) [Example 31, 1-[trans-3-methoxycyclohexyl]-3-methyl-8-[4-(3-pyrrolidin-1-ylpropoxy)phenyl]imidazo[4,5-c]quinolin-2-one]	0.706 nM	10900 nM
CC(C)n1c(=O)n(C)c2cnc3ccc(-c4ccc(OCCCN(C)C)cc4)cc3c21 [Example 1, 8-[4-[3-(Dimethylamino)propoxy]phenyl]-1-isopropyl-3-methyl-imidazo[4,5-c]quinolin-2-one]		> 30000 nM
CC(C)n1c(=O)n(C)c2cnc3ccc(-c4ccc(OCCCN5CCCC5)cc4)cc3c21 [Example 2, 1-isopropyl-3-methyl-8-[4-(3-pyrrolidin-1-ylpropoxy)phenyl]imidazo[4,5-c]quinolin-2-one]	0.984 nM	> 30000 nM
CC(C)n1c(=O)n(C)c2cnc3ccc(-c4ccc(OCCCN5CCC5)cc4)cc3c21 [Example 3, 8-[4-[3-(azetidin-1-yl)propoxy]phenyl]-1-isopropyl-3-methyl-imidazo[4,5-c]quinolin-2-one]	0.173 nM	> 30000 nM
CN(C)CCCOc1ccc(-c2cc3c(cc2F)ncc2c3n([C@H]3CCCOC3)c(=O)n2C)cc1 [Example 10, 8-[4-[3-(dimethylamino)propoxy]phenyl]-7-fluoro-3-methyl-1-[(3S)-tetrahydropyran-3-yl]imidazo[4,5-c]quinolin-2-one]	3.92 nM	> 30000 nM
Cn1c(=O)n([C@@H]2CCCOC2)c2c3cc(-c4ccc(OCCCN5CCCC5)cc4)ccc3ncc21 [Example 16, 3-methyl-8-[4-(3-pyrrolidin-1-ylpropoxy)phenyl]-1-[(3R)-tetrahydropyran-3-yl]imidazo[4,5-c]quinolin-2-one]	0.797 nM	> 26000 nM
CO[C@H]1CC[C@H](n2c(=O)n(C)c3cnc4ccc(-c5ccc(OCCCN6CCCC6)cc5)cc4c32)CC1 [Example 22, 1-(trans-4-methoxycyclohexyl)-3-methyl-8-[4-(3-pyrrolidin-1-ylpropoxy)phenyl]imidazo[4,5-c]quinolin-2-one]	0.458 nM	> 10000 nM
CO[C@H]1CC[C@H](n2c(=O)n(C)c3cnc4ccc(-c5ccc(OCCCN(C)C)cc5)cc4c32)CC1 [Example 26, 8-[4-[3-(dimethylamino)propoxy]phenyl]-1-(trans-4-methoxycyclohexyl)-3-methyl-imidazo[4,5-c]quinolin-2-one]	0.467 nM	> 30000 nM
CO[C@H]1CC[C@@H](n2c(=O)n(C)c3cnc4ccc(-c5ccc(OCCCN6CCCC6)cc5)cc4c32)CC1 [Example 27, 1-(cis-4-methoxycyclohexyl)-3-methyl-8-[4-(3-pyrrolidin-1-ylpropoxy)phenyl]imidazo[4,5-c]quinolin-2-one]	0.492 nM	> 18500 nM

The next lines start with the values.

IC50 [1]	IC50 [2]	SMILES
2.37 nM	> 30000 nM	CO[C@@H]1CCC[C@H](n2c(=O)n(C)c3cnc4ccc(-c5ccc(OCCCN(C)C)cc5)cc4c32)C1 (relative stereo) [Example 32, 8-[4-[3-(dimethylamino)propoxy]phenyl]-1-[cis-3-methoxycyclohexyl]-3-methyl-imidazo[4,5-c]quinolin-2-one]
2.29 nM	19200 nM	CO[C@@H]1CCC[C@H](n2c(=O)n(C)c3cnc4ccc(-c5ccc(OCCCN6CCCC6)cc5)cc4c32)C1 (relative stereo) [Example 38, 1-[cis-3-methoxycyclohexyl]-3-methyl-8-[4-(3-pyrrolidin-1-ylpropoxy)phenyl]imidazo[4,5-c]quinolin-2-one]
5.77 nM	> 30000 nM	CO[C@@H]1CC[C@H](n2c(=O)n(C)c3cnc4cc(F)c(-c5ccc(OCCCN(C)C)cc5)cc4c32)C1 (single isomer, unassigned) [Example 36, 8-[4-[3-(dimethylamino)propoxy]phenyl]-7-fluoro-1-[cis-3-methoxycyclopentyl]-3-methyl-imidazo[4,5-c]quinolin-2-one]
0.349 nM		CO[C@H]1CC[C@H](n2c(=O)n(C)c3cnc4ccc(-c5ccc(OCCCN6CCCCC6)cc5)cc4c32)C1 [Example 40, 1-[(1S,3S)-3-methoxycyclopentyl]-3-methyl-8-[4-[3-(1-piperidyl)propoxy]phenyl]imidazo[4,5-c]quinolin-2-one]
0.23 nM	> 28800 nM	CO[C@H]1C[C@@H](n2c(=O)n(C)c3cnc4ccc(-c5ccc(OCCCN6CCCC6)cc5)cc4c32)C1 [Example 41, 1-(cis-3-methoxycyclobutyl)-3-methyl-8-[4-(3-pyrrolidin-1-ylpropoxy)phenyl]imidazo[4,5-c]quinolin-2-one]
2 nM	16800 nM	Cn1c(=O)n(C2CCOCC2)c2c3cc(-c4ccc(OCCCN5CCCC5)cc4)c(F)cc3ncc21 [Example 46, 7-fluoro-3-methyl-8-[4-(3-pyrrolidin-1-ylpropoxy)phenyl]-1-tetrahydropyran-4-yl-imidazo[4,5-c]quinolin-2-one]
